Data published in PMC6547681 (Nature Communications, 2019).
Where “and” joins values, the source holds several entries; their conditions need not be identical. Equal entries are not always repeated. Where two headings read alike, the source gives them in different places. Values belong to the molecule of their own block, whether it stands above or below them. Where no end group is shown, it is not given here.

Columns and labels:
BCL-2 F104L [1] = details: listed as Ven, cited from earlier work
BCL-2 WT [2] = details: competition vs BIMBH3 SPR surface, mean ± SD, n=3, previously reported, listed as Ven; cited from earlier work
BCL-2 G101V [3] = details: G101V relative to WT; cited from earlier work
[4] = tested on: KMS-12-PE cells, Parental; experiment: CellTiter-Glo cell viability, KMS-12-PE parental cells; format: cell-based; details: 3 independent experiments in duplicate
BCL-2 F104L [5] = details: cited from earlier work
BCL-2 G101V [6] = details: cited from earlier work
BCL-2 WT [7] = details: cited from earlier work
[8] = biological target: BCL-2 G101V/E152A double mutant (Homo sapiens, UniProt P10415, E152A/G101V); experiment: SPR direct binding to immobilised BH3 peptides (kinetic fit), BCL-2 G101V/E152A double mutant
Sequence of BCL-2 G101V/E152A double mutant (P10415 with tags, fused parts or gaps G101V/E152A): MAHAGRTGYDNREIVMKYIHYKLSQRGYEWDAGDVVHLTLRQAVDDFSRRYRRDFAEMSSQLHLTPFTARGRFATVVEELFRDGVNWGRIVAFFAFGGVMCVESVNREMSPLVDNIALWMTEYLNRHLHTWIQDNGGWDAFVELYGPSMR
Description: (§1) SPR experiments were performed as previously described. […] The lowest concentrations used in direct binding experiments were 1 nM for BIAcore 4000 and 0.1 nM for BIAcore S200 instruments, concentrations below these were below the sensitivity thresholds for the instruments. […] Direct binding experiments were fitted to a 1:1 binding site kinetic model, fitting on and off rates, in BIAevaluation software. For competition experiments steady-state responses were determined in BIAevaluation software according to the software defaults in affinity evaluation mode averaging responses for 5 sec. […] All affinity measurements were performed in at least two independent experiments using independent protein preparations.
(§2) Raw data (coloured curves) were fitted (black curves) to a 1 site specific kinetic model to determine on and off rates and the equilibrium binding constant KD.
(§3) The BCL-2 mutant proteins were diluted in a 2-fold dilution series, concentration ranges for curves are indicated. All experiments shown were performed on a BIAcore 4000, with the exception of (a) which was performed on a BIAcore S200.
(§4) (1 picture or pasted object on this page, not shown here)

BCL-2 F104C = BCL-2 F104C (Homo sapiens, UniProt P10415, F104C); experiment: SPR direct binding to immobilised BH3 peptides (kinetic fit), BCL-2 F104C; details: for Kd: BCL-2 F104C
Sequence of BCL-2 F104C (P10415 with tags, fused parts or gaps F104C): as the sequence (P10415 with tags, fused parts or gaps G101V/E152A) above, with V44G, F47C, A95E counted along it
Description: as §1, §2, §3, §4

BCL-2 E152A = BCL-2 E152A (Homo sapiens, UniProt P10415, E152A); experiment: SPR direct binding to immobilised BH3 peptides (kinetic fit), BCL-2 E152A
Sequence of BCL-2 E152A (P10415 with tags, fused parts or gaps E152A): as the sequence (P10415 with tags, fused parts or gaps G101V/E152A) above, with V44G counted along it
Description: as §1, §2, §3, §4

[9] = read-out: BAXBH3 KD (mean), direct binding, kinetic fit, mean ± SD, n ≥ 2, previously reported
[10] = read-out: BAXBH3 KD, single independent experiments, independent experiments 1-3, previously reported
[11] = BCL-2 F104C binding BAXBH3, 1:1 kinetic fit, each independent experiment
[12] = read-out: BAXBH3 KD (mean), direct binding, kinetic fit, mean ± SD, n ≥ 2

Molecule: CC1(C)CCC(CN2CCN(c3ccc(C(=O)NS(=O)(=O)c4ccc(NCC5CCOCC5)c([N+](=O)[O-])c4)c(Oc4cnc5[nH]ccc5c4)c3)CC2)=C(c2ccc(Cl)cc2)C1 [venetoclax]
Ki (BCL-2 F104L [1]; competition vs BIMBH3 SPR surface, mean ± SD, n=3, previously reported, read-out: Ven KI (mean)): 0.46 nM and 0.456 nM | Ki (BCL-2 F104L [1]; independent experiments 1-3, previously reported, read-out: Ven KI, single independent experiments): 0.358 nM and 0.584 nM and 0.425 nM | Ki (BCL-2 WT [2]): 0.018 nM and 0.0181 nM | reduction of affinity of the drug for BCL-2 by the G101V mutation (BCL-2 G101V [3]): ~180 fold

Molecule: O=C(c1cc(-c2cc3c(cc2C(=O)N2Cc4ccccc4C[C@H]2CN2CCOCC2)OCO3)n2c1CCCC2)N(c1ccccc1)c1ccc(O)cc1 [Servier BCL2i]
Raw data values in Figure 4a (cell viability) ([4]; Servier BCL2i concentration 0.002441 μM, 0.002441 µM): 91.4402 and 90.8859 and 86.2314 and 89.8168 and 85.5276 and 83.3911 | Raw data values in Figure 4a (cell viability) ([4]; Servier BCL2i concentration 0.019531 μM, 0.019531 µM): 79.2854 and 83.3303 and 62.6836 and 66.1433 and 63.9237 and 63.1413 | Raw data values in Figure 4a (cell viability) ([4]; Servier BCL2i concentration 0.15625 μM, 0.15625 µM): 41.8118 and 47.4883 and 34.039 and 38.7009 and 36.6962 and 37.7057 | Raw data values in Figure 4a (cell viability) ([4]; Servier BCL2i concentration 10 μM, 10 µM): 0.8691 and 0.8133 and 1.2479 and 1.255 and 1.1789 and 1.099

Kd ([8]; read-out: BAXBH3 KD (mean), BCL-2 G101V/E152A, direct binding, kinetic fit, mean ± SD, n ≥ 2): 5.5 nM and 5.51 nM | Kd ([8]; read-out: BAXBH3 KD, single independent experiments, BCL-2 G101V, E152A (DM), independent experiments 1-2): 5.7 nM and 5.31 nM | Kd (BCL-2 F104C; [12]): 4 nM and 4.02 nM | Kd (BCL-2 F104C; read-out: BAXBH3 KD, single independent experiments, independent experiments 1-3): 4.25 nM and 3.96 nM and 3.84 nM | Kd (BCL-2 E152A; [12]): 3.6 nM and 3.55 nM | Kd (BCL-2 E152A; read-out: BAXBH3 KD, single independent experiments, independent experiments 1-2): 4.18 nM and 2.93 nM
Molecule: BAXBH3: biotinylated BAXBH3 peptide ADASTKKLSECLKRIGDELDSNMELQRMIAA immobilised on SPR sensor chip (also: biotinylated, place not given here)
Kd (BCL-2 F104L [5]; [9]): 6.1 nM and 6.08 nM | Kd (BCL-2 F104L [5]; [10]): 7.24 nM and 5.46 nM and 5.55 nM | Kd (BCL-2 G101V [6]; [9]): 12 nM and 11.7 nM | Kd (BCL-2 G101V [6]; [10]): 9.91 nM and 12.9 nM and 12.2 nM | Kd (BCL-2 WT [7]; [9]): 1.4 nM and 1.37 nM | Kd (BCL-2 WT [7]; [10]): 1.6 nM and 1.14 nM and 1.36 nM | ka (BCL-2 F104C; [11]): 1.67e+06 M⁻¹ s⁻¹ and 2e+06 M⁻¹ s⁻¹ and 2.06e+06 M⁻¹ s⁻¹ | kd (BCL-2 F104C; [11]): 0.00709 s⁻¹ and 0.00791 s⁻¹ and 0.0079 s⁻¹
